Test results taken from patent US10570180B2, “Anti-bacterial agents and their use in therapy” (priority 2015, dated 2020).
≈ marks a conversion by molar mass, not a printed value. Ends that are not written are not given here.

Assays:
[1] = target: β-clamp protein from E. coli (Escherichia coli, UniProt P0A988); experiment: Microscale thermophoresis (MST); format: binding; settings: no data could be obtained
Protocol: Microscale thermophoresis (MST) was used to determine the dissociation constant for various APIM containing peptides.
The β-clamp protein from E. coli was labeled with a fluorescent molecule. Concentration of PCNA was kept constant, whereas dilutions of each APIM containing peptide were prepared (1:1). In a mix of protein and peptide, the signal was recorded in all capillaries with varying concentrations of the unlabeled peptide, and any change of thermophoretic properties was observed as a change in fluorescence intensity.

[2] = test system: Staphylococcus aureus MRSA 1040s; experiment: microbe, parasite or virus in culture; format: cell-based; settings: for MIC of Erythromycin (Relative values): concentration of APIM peptide 15 μg/ml, MRSA 1040s
Protocol: (§1) ATX-101 was dissolved in Mueller-Hinton broth to 1.25 times of the desired assay concentration. Antibiotics were dissolved in Mueller-Hinton broth and Mueller-Hinton broth with ATX-101 at a concentration of 1.25 times the highest desired assay concentrations. Antibiotics were pharmaceutical grade purchased from Sigma-Aldrich.
(§2) Two-fold serial dilutions of antibiotics were made in Mueller-Hinton with different concentrations of ATX-101, and the solutions were placed in four parallel wells is Nunc 384-well micro plates (30 μl per well in Nunc 242757 microplates). A group of 8 wells with no addition of antibiotics for each ATX-101 concentration was included on each micro plate as a growth reference.
(§3) At the day of analysis, overnight TSB cultures inoculated from freeze stocks (6 ml in 50 ml tube tilted to 45-degrees angle, 200 rpm, 2.5 cm amplitude, 37° C.) were diluted in TSB until the OD800 was 0.10, and further diluted 1:40 in Mueller-Hinton broth. Each well in the 384-well assay plates was inoculated with 7.5 μl of the diluted culture, giving the same dilution of the culture in the assay cultures. The microplates were placed in plastic bags and incubated without shaking at 37° C. The optical density at 600 nm in the microwells was measured after approximately 19 hours of incubation, and the relative growth yield was calculated based on the growth in the reference groups. The MIC value was set to the highest concentration giving less than 30% growth in all 4 parallel wells within the sample groups. The microplates were further incubated for 6 hours, and optical density in the cultures was measured once more for confirmation of the estimated MIC-values.
as §1, with “The APIM peptide was” for “ATX-101 was”, “with APIM” for “with ATX-101”
as §2, with “APIM,” for “ATX-101,”, “in” for “is”, “APIM” for “ATX-101”, “as” for “as a”
as §3, with “inoculated” for “inoculated from”, “OD600” for “OD800”, “culture.” for “culture, giving the same dilution of the culture in the assay cultures.”, “yield in each well” for “yield”
In view of the anti-bacterial effect of ATX-101 on strains of MRSA, the MIC for a variety of APIM variants was determined using Staphylococcus aureus MRSA 1040s. […] A cell penetrating peptide (SEQ ID NO: 337) present in all of the APIM peptides, was used as a negative control.
Next, the effect of APIM peptides on the MIC of antibiotics was determined using Staphylococcus aureus MRSA 1040s.
(§4) The MICS for various APIM peptides were determined for various bacteria, as described above.

[3] = test system: E. faecium CCUG 37832 (TO-3); format: cell-based, Enterococcus faecium; settings: CCUG 37832
Protocol: as §1, §2, §3
Accordingly, concentrations of 8 μg/ml and 16 μg/ml of ATX-101 were combined with various antibiotics selected from; 2,4-Diamin, S. methizol, S. methoxa, S. dimetho, Surfaceta, Trimeth, Flumeq, Levoflox, Pruliflox, Metronid and Nitrofur.
as §4

E. faecium TO-12 = format: cell-based
Protocol: as §1, §2, §3, §4

A. baumanii = format: cell-based
Protocol: as §1, §2, §3, §4

[4] = test system: Staphylococcus aureus NCTC 6571; format: cell-based; settings: NCTC 6571
Protocol: as §1, §2, §3, §4

bacteria = experiment: MIC of other APIM peptides on bacteria; format: cell-based; settings: Example 2
E. coli BL21 (ripl) = experiment: Overexpression of APIM peptides in E. coli, growth; format: cell-based; settings: induction with 1 mM IPTG, no cell-penetrating peptide; FIG. 9, 10
From the text: In order to verify further that the anti-microbial effect of the APIM peptides arise from the APIM sequence, peptides containing only the APIM sequence (i.e. without a cell-penetrating peptide) were over-expressed in E. coli using the expression vector pET28. The APIM peptide was expressed alone or as part of a fusion protein with EYFP. Expression of EYFP alone was used as a control.
The expression vectors containing the respective peptides were transfected into the bacterial strain E. coli BL21 (ripl). Single colonies, 4-6 of each strain, were inoculated in […] LB media (+Km/Clm) in 96 wells plates, and incubated at 37° C. Overnight cultures were diluted 1:100 and grown for 1 h before induction with 1 mM IPTG (initiating peptide expression). OD was measured every hour.
In order to verify that the extended APIM peptides have an anti-bacterial effect, peptides containing only the “extended” APIM sequence (i.e. without a cell-penetrating peptide) were over-expressed in E. coli using the expression vector pET28, using the method described in Example 7. […] The bacterial strain without a plasmid was used as a further control.

Chain of β-clamp protein from E. coli (P0A988 whole entry): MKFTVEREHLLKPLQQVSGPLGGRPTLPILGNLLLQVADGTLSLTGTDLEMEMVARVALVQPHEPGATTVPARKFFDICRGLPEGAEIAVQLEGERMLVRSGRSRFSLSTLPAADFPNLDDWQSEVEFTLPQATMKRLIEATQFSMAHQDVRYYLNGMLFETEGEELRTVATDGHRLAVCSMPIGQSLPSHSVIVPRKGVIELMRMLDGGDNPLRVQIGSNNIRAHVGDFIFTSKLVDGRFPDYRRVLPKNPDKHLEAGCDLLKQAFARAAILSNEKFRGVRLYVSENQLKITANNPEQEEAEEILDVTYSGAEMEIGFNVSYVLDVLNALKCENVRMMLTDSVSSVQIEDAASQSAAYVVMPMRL

Row | Molecule | MIC [3] | MIC of Erythromycin (Relative values) [2] | MIC (E. faecium TO-12) | MIC [4] | bacterial growth on overexpression of APIM peptide (OD) (E. coli BL21 (ripl)) | also measured
1 | N=C(N)NCCC[C@H](NC(=O)[C@H](CCCNC(=N)N)NC(=O)[C@H](CCCNC(=N)N)NC(=O)[C@H](CCCNC(=N)N)NC(=O)[C@H](CCCNC(=N)N)NC(=O)[C@H](CCCNC(=N)N)NC(=O)[C@H](CCCNC(=N)N)NC(=O)[C@H](CCCNC(=N)N)NC(=O)[C@H](CCCNC(=N)N)NC(=O)[C@H](CCCNC(=N)N)NC(=O)[C@@H](N)CCCNC(=N)N)C(=O)O [R11, RRRRRRRRRRR, reference compound] | – | – | – | – | – | interaction with the β-clamp protein [1]: does not interact with the β-clamp protein; MIC ([2]; 1040s): 118 µg/mL (≈ 68 µM)
2 | CC[C@H](C)[C@H](NC(=O)[C@H](CCCCN)NC(=O)[C@H](CCCNC(=N)N)NC(=O)[C@H](CCCCN)NC(=O)[C@H](CCCCN)NC(=O)[C@H](CCCCN)NC(=O)[C@H](Cc1c[nH]c2ccccc12)NC(=O)[C@@H]1CCCN1C(=O)[C@@H](NC(=O)[C@H](CC(C)C)NC(=O)[C@H](Cc1c[nH]c2ccccc12)NC(=O)[C@H](CCCNC(=N)N)NC(=O)[C@H](CC(=O)O)NC(=O)[C@@H](N)CCSC)C(C)C)C(=O)N[C@@H](CCCNC(=N)N)C(=O)N[C@@H](CCCNC(=N)N)C(=O)N[C@@H](CCCNC(=N)N)C(=O)N[C@@H](CCCNC(=N)N)C(=O)N[C@@H](CCCNC(=N)N)C(=O)N[C@@H](CCCNC(=N)N)C(=O)N[C@@H](CCCNC(=N)N)C(=O)N[C@@H](CCCNC(=N)N)C(=O)N[C@@H](CCCNC(=N)N)C(=O)N[C@@H](CCCNC(=N)N)C(=O)N[C@@H](CCCNC(=N)N)C(=O)O [SEQ ID NO: 1303] | 7.5 µM (≈ 27 µg/mL) | 100 | 25.3 µM (≈ 91.1 µg/mL) | 37.9 µM (≈ 137 µg/mL) | – | MIC (A. baumanii): 25.3 µM (≈ 91.1 µg/mL)
3 | MDRWAVKWKKKRKIRRRRRRRRRRR [SEQ ID NO: 1299] | 7.5 µM | 200 | 25.3 µM | 37.9 µM | – | MIC compared with ATX-101 (bacteria): lower MICs than ATX-101
4 | MDRWSVKWKKKRKIRRRRRRRRRRR [SEQ ID NO: 1298] | 7.5 µM | 100 | 37.9 µM | 37.9 µM | – | MIC compared with ATX-101 (bacteria): lower MICs than ATX-101
5 | RFSLK (APIM variant) [SEQ ID NO: 1291] | – | – | – | – | particularly effective | –
6 | RWLTK (APIM variant) [SEQ ID NO: 1293] | – | – | – | – | particularly effective | –
7 | RWLVK (APIM) [SEQ ID NO: 1290] | – | – | – | – | inhibits bacterial growth | –
8 | RWLVP (APIM variant) [SEQ ID NO: 1292] | – | – | – | – | particularly effective | –
